Measured values published in patent US10271557B2, “Composition comprising a bacteriocin and an extract from a plant of the Labiatae family” (DUPONT NUTRITION BIOSCIENCES APS, priority 2003, dated 2019).

Assays:
[1] = tested on: Listeria monocytogenes and B. cereus strains; experiment: In vitro synergy with nisin in Bioscreen, 24 h at 30° C.; type: cell-based, Listeria monocytogenes; Bacillus cereus; conditions: combined with nisin
Protocol: Growth curves of Listeria monocytogenes and B. cereus strains in laboratory media were analysed as described above using the Bioscreen C analyser. Minimal inhibitory concentrations (MIC) were determined for the test compounds used singly or in combination after 24 h at 30° C. […] These had been prepared by selected extraction with either organic solvents or CO2 to obtain extracts containing 28% phenolic diterpenes (28RE; Danisco) and a rosemary extract containing 6% rosmarinic acid (6RA; Danisco).

B. cereus Campden spores = experiment: MIC in Bioscreen after 24 h at 30° C. in laboratory medium; type: cell-based, Bacillus cereus; conditions: alone
Protocol: (§1) A 100,000 ppm GRE09 solution was prepared in water and filter sterilised (0.2 μm). Further dilutions were prepared in sterile deionised water at 1,250-20,000 ppm. Brain Heart Infusion broth (Oxoid) was prepared and GRE09 stock solutions were added to give the following test solutions of GRE09; 125, 250, 500, 750, 1000, 1250, 1500, 2000 ppm. […] A fully automated microbial growth analyser was used to determine microbial growth curves (Microbiology Reader Bioscreen C analyser linked to a PC with installed software BioLink v 5.30; Labsystem Oy, Finland). Tests were prepared in honeycomb 2 (HC 2) microtitre/cuvette plates with a capacity of 100 wells per plate. The wells were loaded with 270 μl of the prepared media and inoculated at a level of 10^3 CFU (colony forming units)/ml with 30 μl of microbial suspension. Incubation time and temperature was as appropriate for the test organism. This test allowed suitable test levels for the compounds to be determined. The rosemary extract and nisin were then tested in combination, using the same procedure. […] GRE09 solutions were prepared at 250, 500 and 1000 ppm as above. Combinations of all these test levels were prepared and tested in the Bioscreen as before.
(§2) Growth curves of Listeria monocytogenes and B. cereus strains in laboratory media were analysed as described above using the Bioscreen C analyser. […]

[2] = tested on: Listeria monocytogenes strains 272, CRA3930 and NCTC12426; experiment: Kill of Listeria in chicken soup at 20° C. with nisin and rosemary extract components; type: cell-based; conditions: FIGS. 4 and 5
Protocol: The chicken soup model was used as before. The following samples were tested: GRE09, deodorised rosemary extracts containing 28% or 70% phenolic diterpenes (RE28 and RE70; Danisco), a water soluble rosemary extract containing 6% rosmarinic acid (6RA; Danisco) and pure rosmarinic acid (RA; Sigma). Additions to the soup were made as appropriate. The soup was pasteurised (70° C./2 minutes), the pH recorded and the soup was then inoculated with a cocktail of Listeria cells prepared as described before. The tests were incubated at 20° C. and viable count enumeration performed after 0, 2, 4 and 24 h at 20° C. Initial Listeria levels were 1.3×10^5 CFU/ml. The test was repeated at two nisin levels and over different time periods. The pH of the soup without addition was pH 6.06-6.20.

[3] = tested on: L. monocytogenes strain S23; experiment: MIC in Bioscreen after 24 h at 30° C. in laboratory medium; type: cell-based, Listeria monocytogenes; conditions: alone
Protocol: as §1, §2

Structure (SMILES) | effect of the substance on nisin activity (synergy) in laboratory medium [1] | MIC in Bioscreen after 24 h at 30° C., individual components (B. cereus Campden spores) [% RA] | synergy with nisin in achieving kill of Listeria cells [2] | MIC in Bioscreen after 24 h at 30° C., individual components [3] [% RA]
O=C(/C=C/c1ccc(O)c(O)c1)O[C@H](Cc1ccc(O)c(O)c1)C(=O)O [RA, rosmarinic acid] | Enhanced nisin activity | 1 | evident but not as strong | 1
CC(O)CO (centres unmarked) [propylene glycol] | did not enhance nisin activity |  |  | 
